Earlier results on twelve compounds are cited in patent US7829698B2, “Nano-particles comprising cucurbituril derivatives, pharmaceutical composition containing the same, and process for the preparation thereof” (Postech Foundation, priority 2003, dated 2010).

The conditions of this data set: host cucurbituril.

Molecules are shown by their SMILES. Peptide text beside a SMILES is read from it.

`CCC(=O)O` [CH3CH2COOH]: the “Kf (non-covalent coupling constant between cucurbituril and guest molecule)” value was 590 M⁻¹.

Turning to `CC(C)[C@H](NC(=O)CN)C(=O)O` [Gly-val] (H-Gly-Val-OH), the “Kf (non-covalent coupling constant between cucurbituril and guest molecule)” value was 1500 M⁻¹.

With `N#CCCN` [H2N(CH2)2CN], the “Kf (non-covalent coupling constant between cucurbituril and guest molecule)” value is 440 M⁻¹.

`NCCC(=O)O` [H2N(CH2)2COOH]: the “Kf (non-covalent coupling constant between cucurbituril and guest molecule)” value is 2300 M⁻¹.

For the compound `NCCCCCO` [H2N(CH2)5OH], the “Kf (non-covalent coupling constant between cucurbituril and guest molecule)” value was 690 M⁻¹.

`C[C@H](N)C(=O)O` [L-Ala]: the “Kf (non-covalent coupling constant between cucurbituril and guest molecule)” value is 1000 M⁻¹.

For the compound `CC(C)[C@H](N)C(=O)O` [L-Val], the “Kf (non-covalent coupling constant between cucurbituril and guest molecule)” value was 1400 M⁻¹.

In the case of `CC(C)C[C@H](N)C(=O)NCC(=O)O` [Leu-gly] (H-Leu-Gly-OH), the “Kf (non-covalent coupling constant between cucurbituril and guest molecule)” value was 370 M⁻¹.

With `CCCCCN` [Me(CH2)4NH2], the “Kf (non-covalent coupling constant between cucurbituril and guest molecule)” value is 24000 M⁻¹.

Take `NCCCCCCN` [NH2(CH2)6NH2]: the “Kf (non-covalent coupling constant between cucurbituril and guest molecule)” value is 2.7e+06 M⁻¹.

For `N[C@@H](Cc1ccccc1)C(=O)NCC(=O)O` [Phe-gly] (H-Phe-Gly-OH), the “Kf (non-covalent coupling constant between cucurbituril and guest molecule)” value was 1100 M⁻¹.

On to `N[C@@H](Cc1ccccc1)C(=O)O` [Phe], for which the “Kf (non-covalent coupling constant between cucurbituril and guest molecule)” value is 1400 M⁻¹.
